Several values for one entry are separate records, joined by “and”; a condition that tells them apart may be missing. Equal entries are not always repeated. Entries after “also recorded” stand apart in the source; their conditions may differ. Where two headings read alike, the source gives them in different places.
T1: TbPTR1 (Trypanosoma brucei brucei, UniProt O76290)
T1 construct: His tag; made in house; host or cells: E. coli
T1 sequence (O76290 1-268): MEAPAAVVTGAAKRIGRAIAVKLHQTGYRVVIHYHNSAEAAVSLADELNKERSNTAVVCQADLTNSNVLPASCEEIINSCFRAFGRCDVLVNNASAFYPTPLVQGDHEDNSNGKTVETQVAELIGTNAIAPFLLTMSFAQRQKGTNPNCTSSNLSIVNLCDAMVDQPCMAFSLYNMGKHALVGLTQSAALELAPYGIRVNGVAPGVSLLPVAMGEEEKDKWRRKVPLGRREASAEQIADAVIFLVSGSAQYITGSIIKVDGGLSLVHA

T2: hDHFR (Homo sapiens, UniProt P00374)
T2 construct: His tag; made in house; host or cells: E. coli
T2 sequence (P00374 1-187): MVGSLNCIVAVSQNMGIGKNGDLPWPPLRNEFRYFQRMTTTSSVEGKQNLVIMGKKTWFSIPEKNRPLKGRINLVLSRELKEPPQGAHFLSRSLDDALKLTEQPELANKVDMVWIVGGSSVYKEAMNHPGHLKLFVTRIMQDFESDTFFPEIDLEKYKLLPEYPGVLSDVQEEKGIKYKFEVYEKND


How the values were obtained:
TbPTR1 [1] = target: T1, TbPTR1; conditions: read-out: TbPTR1 IC50; cited from earlier work
hDHFR = target: T2, hDHFR; assay: hDHFR spectrophotometric enzyme inhibition assay; type: biochemical; conditions: TES buffer pH 7.4, 50 µM H2FA; spread from CI95 of fitting
Experimental: (§1) Recombinant TbPTR1, TbDHFR-TS, and hDHFR were expressed in E. coli as histidine-tagged proteins and purified following established protocols. Purified recombinant enzymes were stored in stock solutions having concentrations of 0.93 mg/mL, 0.53 mg/mL, and 0.88 mg/mL, for TbPTR1, TbDHFR-TS, and hDHFR, respectively. A direct spectrophotometric kinetic test was used to evaluate the inhibitory activity of the compound library. A Jasco-V730 double beam spectrophotometer (Jasco Europe) was employed to perform the assays. Fixed final concentrations of purified TbPTR1, TbDHFR-TS, and hDHFR (15 nM, 55 nM, and 15 nM respectively) were incubated in semi-micro plastic cuvettes (Brand, Tech Scientific, Essex, UK) with 400 µL of sodium citrate buffer at pH = 3.7 and TES buffer (100 mM TES, 50 mM MgCl2, 13 mM CH2O, 2 mM EDTA, 150 mM 2-mercaptoethanol, pH 7.4), plus 25 µM 7,8-dihydro-L-biopterin (H2B, Sigma Aldrich) for TbPTR1 and 50 µM of 7,8-dihydrofolic acid (H2FA, Sigma Aldrich) for TbDHFR-TS and hDHFR enzymes.
(§2) Residual NADP(H) absorption (λmax = 340 nm), converted to NADP^+ as cofactor, was monitored for 180 s of the ongoing reaction and its Δ(OD)/min was registered for v(0) slope at 22.4 °C. Each inhibition assay was performed in triplicate, and five to six different concentrations of compounds were tested to assess their relative IC50.
(§3) The equation used to interpolate points was y = y(min) + (y(max) − y(min))/(1 + (IC50/x)^^HillSlope), where HillSlope was constrained at −1 (standard Michaelis–Menten behaviour for competitive inhibitors), from which IC50 were extrapolated. Standard deviations—as reported in Table 1—were obtained from 95% confidence interval (CI95) of fitting.

TbDHFR-TS = target: T3, TbDHFR-TS (Trypanosoma brucei brucei, UniProt Q27783); assay: biochemical; type: biochemical; conditions: for Selectivity IC50 hDHFR /IC50 TbDHFR-TS: ratio, PYR and CYC from Ki values
T3 construct: His tag; made in house; host or cells: E. coli
T3 sequence (Q27783 whole entry): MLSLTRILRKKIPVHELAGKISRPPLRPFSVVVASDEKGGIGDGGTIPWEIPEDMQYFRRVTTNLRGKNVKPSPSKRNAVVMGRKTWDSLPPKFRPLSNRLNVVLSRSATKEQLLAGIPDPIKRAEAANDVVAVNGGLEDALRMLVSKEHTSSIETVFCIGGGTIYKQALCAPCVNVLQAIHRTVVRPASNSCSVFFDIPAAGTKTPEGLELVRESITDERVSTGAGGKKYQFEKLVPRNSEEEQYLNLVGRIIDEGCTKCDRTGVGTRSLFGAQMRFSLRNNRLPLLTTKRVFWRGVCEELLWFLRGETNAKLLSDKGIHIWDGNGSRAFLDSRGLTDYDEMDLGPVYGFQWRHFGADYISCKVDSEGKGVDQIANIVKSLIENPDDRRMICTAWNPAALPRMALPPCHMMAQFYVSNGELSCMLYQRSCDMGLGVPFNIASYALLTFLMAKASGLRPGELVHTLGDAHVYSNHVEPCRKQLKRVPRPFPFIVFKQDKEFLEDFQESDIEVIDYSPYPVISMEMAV
Experimental: as §1, §2, §3

TbPTR1 [2] = target: T1, TbPTR1; assay: biochemical; type: biochemical; conditions: for Selectivity IC50 TbDHFR-TS /IC50 TbPTR1: ratio, for PYR and CYC calculated assuming a competitive inhibition mechanism; for IC50: recombinant enzyme, citrate buffer pH 3.7, 25 µM H2B, spread from CI95 of fitting; for fold improvement of inhibitory activity against TbPTR1 relative to CYC: versus CYC IC50
Experimental: as §1, §2, §3

[3] = Stability of compound 6 in solution at different pH (HPLC-ELSD); type: physicochemical; conditions: pH 10.5, 7 and 3.7, room temperature, overnight / 30 h
Experimental: Although it was unusual, we suspected the potential hydrolysis of the acetamido group to generate an amine and acetic acid. Therefore, we tested the compound stability at pH 10.5, 7, and 3.7 overnight at room temperature.
We have studied the stability of the CYC-like compound 6 to test the hydrolysis of the N-acetyl group in different pH buffers and to screen its putative prodrug action. We prepared three 10 µM solutions from a 100 µM DMSO stock of compound 6 in double deionized water, at pH 10.5 with NaOH, and in citrate buffer, pH 3.7, used for kinetic assays with TbPTR1. We have monitored the purity of these solutions with HPLC–ELSD just after compound dilutions. A volume of 7 µL of each solution was immediately injected in an HPLC Atlantis dC18, 150 × 3.9 mm, 3 µm ID column (Waters Corp, Milford, MA, US) coupled to an ELSD detector (Agilent 1260 Infinity II system). Compounds were eluted with 0.1% formic acid in water (A) and pure acetonitrile (B), gradient 10% to 50% B for 10 min, at 0.5 mL min^−1, room temperature. Detector parameters were set as follows: Neb = 30 °C, Evap = 40 °C, N2 flow = 1.6 SLM, smoothing = 3.0 s. […] Compound stability also was evaluated with 1H-NMR, obtaining the same results. We thus concluded that compound 6 is not susceptible to pH mediated hydrolysis, and acts as a TbPTR1 inhibitor as N-acetylated compounds.

[4] = target: the molecule itself; assay: crystal structure; TbPTR1 crystals by hanging drop vapour diffusion at room temperature, 2-2.5 M sodium acetate, 0.1 M sodium citrate pH 5; soaked with 3 mM PYR; space group P21 with a functional tetramer in the asymmetric unit; NADP(H) bound
[5] = TES buffer pH 7.4, 50 µM H2FA, spread from CI95 of fitting, read-out: TbDHFR-TS (IC50 µM)

Molecule | IC50 (TbPTR1 [1]) [µM] | IC50 (hDHFR) [µM] | IC50 (TbDHFR-TS; [5]) [µM] | Selectivity IC50 hDHFR /IC50 TbDHFR-TS (TbDHFR-TS) | Selectivity IC50 TbDHFR-TS /IC50 TbPTR1 (TbPTR1 [2]) | IC50 (TbPTR1 [2]) [µM] | fold improvement of inhibitory activity against TbPTR1 relative to CYC (TbPTR1 [2]) [fold] | IC50 (TbDHFR-TS) [µM] | compound stability (hydrolysis of N-acetyl group), HPLC analysis [3] | stoichiometry N [4]
CC1(C)N=C(N)N=C(N)N1c1ccc(Cl)c(Cl)c1 [Compound 1a] | 0.692 |  |  |  |  |  |  |  |  | 
COc1ccc(N2C(N)=NC(N)=NC2(C)C)cc1 [Compound 5, 1-(4-methoxyphenyl)-6,6-dimethyl-1,6-dihydro-1,3,5-triazine-2,4-diamine] |  | 413 | 33.2 | 12.4 | 49.6 | 0.67 | 46 |  |  | 
CC1(C)N=C(N)N=C(N)N1c1ccc(O)cc1 [Compound 4] |  | 284 | 89 | 3.19 | 21.7 | 4.1 |  |  |  | 
NC1=NC(c2ccc([N+](=O)[O-])cc2)N(c2ccc(Cl)c(Cl)c2)C(N)=N1 (stereo not shown) [Compound 2a] | 0.186 |  |  |  |  |  |  |  |  | 
NC1=NC2(CCCCC2)N(c2ccc(Cl)cc2)C(N)=N1 [Compound 3] |  | 65.6 | 17.6 | 3.73 | 14.4 | 1.22 | 30 |  |  | 
CC1(C)N=C(N)N=C(N)N1c1ccc(Cl)cc1 [CYC, cycloguanil] | 31.6 |  |  |  |  |  |  |  |  | 
CC1N=C(N)N=C(N)N1c1ccc(Cl)cc1 (stereo not shown) [Compound 1] |  | 337 |  | 3.27 | 16.9 | 6.02 |  | 103 |  | 
COc1ccc(N2C(N)=NC(NC(C)=O)=NC2(C)C)cc1 [Compound 6, N-[6-amino-5-(4-methoxyphenyl)-4,4-dimethyl-4,5-dihydrotriazin-2-yl]acetamide] |  | 62.5 | 18.9 | 3.31 | 22.8 | 0.83 |  |  | fully stable; also recorded: no changes in chromatograms were detected | 
CCCC1N=C(N)N=C(N)N1c1ccc(Cl)cc1 (stereo not shown) [Compound 2] |  | 66.7 |  | 9.2 and 9.19 | 0.26 | 27.5 |  | 7.26 |  | 
Trypanosoma brucei pteridine reductase 1 (enzyme, pteridine reductase 1 (PTR1) of Trypanosoma brucei, recombinant; also called TbPTR1; PTR1; source: E. coli, histidine-tagged, purified following established protocols) MEAPAAVVTGAAKRIGRAIAVKLHQTGYRVVIHYHNSAEAAVSLADELNKERSNTAVVCQADLTNSNVLPASCEEIINSCFRAFGRCDVLVNNASAFYPTPLVQGDHEDNSNGKTVETQVAELIGTNAIAPFLLTMSFAQRQKGTNPNCTSSNLSIVNLCDAMVDQPCMAFSLYNMGKHALVGLTQSAALELAPYGIRVNGVAPGVSLLPVAMGEEEKDKWRRKVPLGRREASAEQIADAVIFLVSGSAQYITGSIIKVDGGLSLVHA |  |  |  |  |  |  |  |  |  | 4

Reference: publication PMC8308740 (Pharmaceuticals, 2021)
